Assay results reported in US4927919A, “Chartreusin derivatives and salts thereof” (Ishihara Sangyo Kaisha, Ltd., priority 1985, dated 1990).

Tests used:
[1] = Acute toxicity (LD50, single intravenous administration); design: species or system day mice; conditions: mouse, in vivo, mice, single i.v.
Description: In Table 15 are shown acute toxicity values (LD50, mg/kg) in day mice in the case of intravenously administering (once) each of the compounds of this invention in the form of preparations shown in the Preparation Examples shown in Table 16.

[2] = tested on: P-388 leukemia cells; experiment: Antitumor activity against P-388 leukemia cells (i.p. implanted, i.v. drug); format: in vivo, BDF1 mice; conditions: i.v., 30-day observation; for response vs control in vivo at 20 mg/kg: dose b: 20 mg/kg/d × 3 (days 1, 5, 9); for response vs control in vivo at 60 mg/kg: dose e: 60 mg/kg/d × 3 (days 1, 5, 9); for response vs control in vivo at 30 mg/kg: dose j: 30 mg/kg/d × 3 (days 1, 5, 9)
Procedure: BDF1 mice were implanted intraperitoneally with P-388 leukemia cells at a rate of 1×10^6 cells/mouse, and each drug to be tested was administered intravenously on the first, fifth and ninth days, or on the first and fifth days after the implantation. […] The T/C (%) was calculated based on the following equation: [formula]
The drugs tested were as follows: solutions prepared by dissolving each of compound Nos. 34, 36 and 43 to 46 in physiological saline; suspension or solutions prepared by dissolving each of compound Nos. 35, 38 and 49 to 55 in dimethylacetamide, followed by adding thereto a small amount of a surface active agent (e.g., Tween-80) and then physiological saline; and suspension or solutions prepared by mixing each of the other compounds and a small amount of a surface active agent (e.g., Tween-80), followed by adding thereto physiological saline.

[3] = Mus musculus, P388, iv, 720 h, read-out: T/C of MST
[4] = Mus musculus, P388, iv, 720 h, dose f: 80 mg/kg/d × 3 (days 1, 5, 9), read-out: T/C of MST

COC1C(N)C(C)OC(OC2C(Oc3cccc4c(OC(=O)c5ccc(Cl)cc5)c5c(=O)oc6ccc(C)c7c(=O)oc(c34)c5c67)OC(C)C3OC(c4ccccc4)OC32)C1O (centres unmarked) [Compound 52]
LD50 ([1]; Preparation Example 6): ≥ 20 mg/kg | response vs control in vivo at 20 mg/kg [2, 3]: 167%

COC1C(N)C(C)OC(OC2C(Oc3cccc4c(OC(=O)c5cccc(C(F)(F)F)c5)c5c(=O)oc6ccc(C)c7c(=O)oc(c34)c5c67)OC(C)C3OC(c4ccccc4)OC32)C1O (centres unmarked) [Compound 53]
LD50 ([1]; Preparation Example 6): ≥ 40 mg/kg | response vs control in vivo at 20 mg/kg [2, 3]: 131% | response vs control in vivo at 40 mg/kg ([2]; Mus musculus, P388, iv, 720 h, dose c: 40 mg/kg/d × 3 (days 1, 5, 9), read-out: T/C of MST): 165%

CCCCCC(=O)Oc1c2cccc(OC3OC(C)C4OC(c5ccccc5)OC4C3OC3OC(C)C(N)C(OC)C3O)c2c2oc(=O)c3c(C)ccc4oc(=O)c1c2c43 (centres unmarked) [Compound 54]
LD50 ([1]; Preparation Example 7): ≥ 40 mg/kg | response vs control in vivo at 20 mg/kg/day ([2]; Mus musculus, P388, iv, 720 h, dose b': 20 mg/kg/d × 2 (days 1, 5), read-out: T/C of MST): 165%

COC1C(N)C(C)OC(OC2C(Oc3cccc4c(OC(=O)CCNC(=O)c5ccccc5)c5c(=O)oc6ccc(C)c7c(=O)oc(c34)c5c67)OC(C)C3OC(c4cccc(F)c4)OC32)C1O (centres unmarked) [Compound 55]
LD50 ([1]; Preparation Example 6): ≥ 80 mg/kg | response vs control in vivo at 80 mg/kg [2, 4]: 133%

COC1C(N)C(C)OC(OC2C(Oc3cccc4c(OC(=O)C(C)CNC(=O)C(F)(F)F)c5c(=O)oc6ccc(C)c7c(=O)oc(c34)c5c67)OC(C)C3OC(C)(C)OC32)C1O (centres unmarked) [Compound 56]
LD50 ([1]; Preparation Example 1): ≥ 80 mg/kg | response vs control in vivo at 80 mg/kg [2, 4]: 138%

COC1C(O)C(C)OC(OC2C(Oc3cccc4c(OC(=O)c5cccs5)c5c(=O)oc6ccc(C)c7c(=O)oc(c34)c5c67)OC(C)C3OC(C)(C)OC32)C1O (centres unmarked) [Compound 62]
LD50 ([1]; Preparation Example 2): ≥ 80 mg/kg | T/C of MST ([2]; dose f: 80 mg/kg/d × 3 (days 1, 5, 9)): 131%

COC1C(O)C(C)OC(OC2C(Oc3cccc4c(OC(=O)c5cc6cc(OCc7ccccc7)ccc6[nH]5)c5c(=O)oc6ccc(C)c7c(=O)oc(c34)c5c67)OC(C)C3OC(c4ccccc4)OC32)C1O (centres unmarked) [Compound 101]
LD50 ([1]; Preparation Example 2): ≥ 60 mg/kg | response vs control in vivo at 60 mg/kg [2, 3]: 191%

COC1C(O)C(C)OC(OC2C(Oc3cccc4c(OC(=O)c5cc6cc(O)ccc6[nH]5)c5c(=O)oc6ccc(C)c7c(=O)oc(c34)c5c67)OC(C)C3OC(c4ccccc4)OC32)C1O (centres unmarked) [Compound 102]
LD50 ([1]; Preparation Example 1): ≥ 60 mg/kg | response vs control in vivo at 60 mg/kg [2, 3]: 256% | response vs control in vivo at 30 mg/kg [2, 3]: 233%

COC1C(O)C(C)OC(OC2C(Oc3cccc4c(OC(=O)c5ocnc5C)c5c(=O)oc6ccc(C)c7c(=O)oc(c34)c5c67)OC(C)C3OC(c4ccccc4)OC32)C1O (centres unmarked) [Compound 103]
LD50 ([1]; Preparation Example 2): ≥ 60 mg/kg | response vs control in vivo at 60 mg/kg [2, 3]: 236% | response vs control in vivo at 30 mg/kg [2, 3]: 210%

COC1C(O)C(C)OC(OC2C(Oc3cccc4c(OC(=O)CCCc5c[nH]c6ccccc56)c5c(=O)oc6ccc(C)c7c(=O)oc(c34)c5c67)OC(C)C3OC(c4ccccc4)OC32)C1O (centres unmarked) [Compound 104]
LD50 ([1]; Preparation Example 2): ≥ 60 mg/kg | response vs control in vivo at 20 mg/kg [2, 3]: 185% | response vs control in vivo at 60 mg/kg [2, 3]: 256% | response vs control in vivo at 30 mg/kg [2, 3]: 219%

CCn1cc(C(=O)Oc2c3cccc(OC4OC(C)C5OC(c6ccccc6)OC5C4OC4OC(C)C(O)C(OC)C4O)c3c3oc(=O)c4c(C)ccc5oc(=O)c2c3c54)c(=O)c2cnc(N3CCCC3)nc21 (centres unmarked) [Compound 105]
LD50 ([1]; Preparation Example 2): ≥ 60 mg/kg | response vs control in vivo at 60 mg/kg [2, 3]: 256% | response vs control in vivo at 30 mg/kg [2, 3]: 165%

CCn1cc(C(=O)Oc2c3cccc(OC4OC(C)C5OC(c6ccccc6)OC5C4OC4OC(C)C(O)C(OC)C4O)c3c3oc(=O)c4c(C)ccc5oc(=O)c2c3c54)c(=O)c2cnc(N3CCNCC3)nc21 (centres unmarked) [Compound 106]
LD50 ([1]; Preparation Example 1): ≥ 60 mg/kg | response vs control in vivo at 60 mg/kg [2, 3]: 244% | response vs control in vivo at 30 mg/kg [2, 3]: 188%

CCn1cc(C(=O)Oc2c3cccc(OC4OC(C)C5OC(C)(C)OC5C4OC4OC(C)C(O)C(OC)C4O)c3c3oc(=O)c4c(C)ccc5oc(=O)c2c3c54)c(=O)c2ccc(C)nc21 (centres unmarked) [Compound 107]
LD50 ([1]; Preparation Example 4): ≥ 80 mg/kg | response vs control in vivo at 80 mg/kg [2, 4]: 134%

CCn1cc(C(=O)Oc2c3cccc(OC4OC(C)C5OC(c6ccccc6)OC5C4OC4OC(C)C(O)C(OC)C4O)c3c3oc(=O)c4c(C)ccc5oc(=O)c2c3c54)c(=O)c2ccc(C)nc21 (centres unmarked) [Compound 108]
LD50 ([1]; Preparation Example 4): ≥ 80 mg/kg | response vs control in vivo at 80 mg/kg [2, 4]: 158%
